# Measurements reported in patent US11427588B2, “Compositions and methods for treating neurodegenerative diseases and cardiomyopathy” (THE REGENTS OF THE UNIVERSITY OF CALIFORNIA, priority 2013, dated 2022).
# Entries after “also recorded” stand apart in the source; their conditions may differ. Read-outs that look alike come from different tables or passages of the source.
# Legend:
# HeLa cells = test: Parkin recruitment to depolarized mitochondria in HeLa cells, PINK1 form not stated; format: cell-based
# Procedure: Parkin phosphorylation and mitochondrial translocation assay: HeLa cells were grown in DMEM supplemented with 10% FBS. Log phase cells were plated in 24 well plates with glass coverslips (Mattek) pretreated with fibronectin. Cells were pretreated with 50 μM of the indicated compound, followed by transfection with MitoGFP, mCherry Parkin, and full length PINK1FLAG3 in a 1:4:2 ratio using Fugene 6 (Promega). Fields of cells were selected by expression of MitoGFP (6 fields/well-3 wells/condition) and imaged at five-minute intervals following depolarization with 5 μM CCCP. Quantification was performed according to published protocols^3 and by creation of a Matlab based script.
# Our ability to enhance PINK1 activity in-vitro using KTP led us to investigate means by which to achieve enhanced activity in cells expressing PINK1. […] We treated cells with either kinetin or adenine (FIG. 2A) and measured Parkin localization following mitochondrial depolarization with CCCP (FIG. 2B). HeLa cells, which have low levels of endogenous PINK1 and PARKIN, were transfected with wildtype or PINK1^G309D, mCherryParkin, and mitoGFP. After 48 hours of incubation with 25 μM adenine, kinetin or equivalent DMSO, we imaged CCCP-mediated depolarization of mitochondria (FIGS. 2C, 2D) and calculated the percentage of GFP labelled mitochondria with mCherryParkin associated (FIG. 2E). […]
# rat hippocampal neurons = test: Mitochondrial motility assay in axons; format: cell-based; conditions: 50 μM
# Excerpt: (§1) Mitochondrial motility assay: Primary hippocampal neuronal cultures were co-transfected with mitochondrial targeted GFP (mitoGFP) and mCherry-tagged synaptophysin (mCherrySynaptophysin) to allow for the live identification of mitochondria in axons.
# (§2) To test if kinetin decreases motility we examined the mobility of axonal mitochondria in hippocampal neurons. Primary hippocampal neuronal cultures were co-transfected with mitoGFP and mCherry-tagged Synaptophysin (mCherrySynaptophysin) to allow for the live identification of mitochondria in axons. […] To test the PINK1 dependency of this process, we treated control mouse C57 (PINK1 wildtype) and PINK1 knockout derived hippocampal neurons with kinetin or 9MK and imaged their mitochondria.
# [1] = test system: C57 (PINK1 wildtype) derived hippocampal neurons; test: Mitochondrial motility assay in axons; format: cell-based, mouse
# Excerpt: as §1, §2
# [2] = test system: PINK1 knockout derived hippocampal neurons; test: Mitochondrial motility assay in axons; format: cell-based, mouse
# Excerpt: as §1, §2
# [3] = test system: SH-SY5Y cells with PINK1-silencing shRNA; test: H2O2 induced apoptosis, Annexin V / PI FACS assay, PINK1-silencing shRNA; format: cell-based, human; conditions: PINK1-silencing shRNA lentivirus; 50 μM 96 hours, 400 μM H2O2
# Procedure: Apoptosis assays and PINK1 shRNA: SH-SY5Y cells (ATCC) were cultured in 1:1 mix of F12K and DMEM supplemented with 20% FBS. PINK1 shRNA lentivirus were produced using a pLKO.1 based shRNA (Sigma) by contransfection with Δ8.9 and pMGD2 vectors in HEK293T cells. SH-SY5Y cells were infected with lentivirus followed by selection with puromycin ([…]). The indicated cells were plated in 6-well plates at about 500,000 cells/well, pretreated with 50 μM of the indicated drug or DMSO for 96 hours followed by 400 μM H2O2 treatment. Subsequently, cells were stained with Annexin V-FITC and PI and analyzed (FACS Diva) on a FACS LSRII Cytometer ([…]) Apoptosis was calculated as the difference between H2O2 treated samples and the respective control.
# Overexpression of PINK1 in neuronal cells (e.g. dopaminergic (DA)) promotes survival in response to oxidative stress and other mitochondrial toxins^7. Before testing the effects of kinetin on apoptosis, we treated DA neurons with 50 μM of either kinetin or adenine and measured cell density after 10 days. […] SH-SY5Y cells were treated with 50 μM kinetin, adenine or DMSO for 96 hours, followed by 400 μM H2O2 treatment for additional 24 hours. Using a cytometry-based FACS assay involving cellular annexin V and propidium iodide staining, we determined the percentage of apoptotic cells after treatment with DMSO, adenine or kinetin.
# Parkin and Bcl-xL = test: Phosphorylation level of Parkin and Bcl-xL in neuronal cell lines; format: cell-based
# Excerpt: (§3) Kinetin mediated PINK1 activity amplification was characterized using a variety of cell lines and primary cells. The HL-1 cell line, an established cardiomyocyte cell line that retains characteristic properties of differentiated cardiac tissue (Claycomb et al., 1998) as well as freshly isolated cardiomyocytes from PINK1wt or PINK1−/− mice. Infected HL-1 cells with a lentivirus expressing shRNA targeting PINK1, were developed to generate a PINK1 knockdown control. To analyze the amplification of PINK1 kinase activity we analyzed the phosphorylation level of Bcl-xL, Mfn2, and Parkin following treatment of PINK1wt and PINK1 knockdown or −/− cell lines with DMSO or 25 μM adenine, kinetin or 9-methyl kinetin (9MK negative control) and fCCCP for three to twenty-four hours following published protocols (Arena et al., 2013; Chen and Dorn, 2013; Kondapalli et al., 2012). […] Accordingly, PINK1wt expressing cells see an increase in PINK1 dependent phosphorylation, but not in those cells where PINK1 has been depleted.
# [4] = test system: PINK1wt HL-1 cells or cardiomyocytes derived from PINK1wt mice; test: Apoptosis of cardiomyocytes after mitochondrial toxins (caspase 3/7, TUNEL, Annexin V); format: cell-based; conditions: 25 μM, versus control compounds or PINK1 knockdown or −/− cells
# Excerpt: as §3
# The amount of early apoptosis was measured using caspase 3/7 cleavage activity and later stage apoptosis by measuring the number of Terminal deoxynucleotidyl transferase dUTP nick end labeling (TUNEL) positive cells and Annexin V binding by FACS analysis following treatment with mitochondrial toxins. […]
# PINK1wt mice = test: Induced myocardial infarction model; format: in vivo; conditions: two weeks dosing
# Procedure: Utilizing mice dosed with kinetin, adenine or vehicle for two weeks, we induced myocardial infarction by ligating the left anterior descending artery at the level of the left atrial appendage (Wang et al., 2006) or sham surgery. Following infarct for 24 or 72 hours, we sacrificed the mice and analyzed the heart by TUNEL staining as cardiomyocytes are susceptible to cell death following infarct. […] These experiments replicate our results in neurons in which kinetin treatment will block apoptosis in response to a number of cellular stressors.
smiles,measurement,setting,value
c1coc(CNc2ncnc3[nH]cnc23)c1 [kinetin],Parkin recruitment to CCCP depolarized mitochondria,HeLa cells,accelerates
same,mitochondrial movement / motility,rat hippocampal neurons; 48 hours pre-treatment,potently and specifically inhibited
same,velocity of mitochondria that remain in motion,"rat hippocampal neurons; 48 hours, retrograde direction",slows; also recorded: decrease in the velocity of mitochondria in the retrograde direction
same,mitochondrial motility,[1],decrease in motility
same,mitochondrial motility,[2],no change in motility
same,mitochondrial motility,[2]; listed as Kinetin,no effect on mitochondrial motility
same,total amount of apoptotic cells,[3],no kinetin effect
same,phosphorylation level of Parkin and Bcl-xL,Parkin and Bcl-xL,significant increase
same,apoptosis levels,[4],significantly lower levels
same,TUNEL positive cells in the peri-infarct area,PINK1wt mice; 24 or 72 hours after infarct,significant decrease in TUNEL positive cells
same,scar size and level of collagen deposition,PINK1wt mice; post-infarct,significant decrease in the scar size and the level of collagen deposition
